Source: article PMC8272121, “Synthesis and Evaluation of Chalcone-Quinoline Based Molecular Hybrids as Potential Anti-Malarial Agents” (Molecules, 2021)
≈ marks a conversion by molar mass, not a printed value.

What was measured:
[1] = system: P. falciparum NF54 (drug-sensitive strain); assay: In vitro antiplasmodial assay (parasite lactate dehydrogenase), chloroquine-sensitive NF54 strain; format: cell-based, Plasmodium falciparum; details: Plasmodium falciparum; sensitive (NF54) strain of P. falciparum; pLDH assay, 48 h; mean of ≥2 independent experiments; read-out: PfNF54 IC50
Method: All the synthesized molecular hybrids (6–27) were evaluated for in vitro antiplasmodial activity against the drug-sensitive strain (NF54) of P. falciparum and for cytotoxicity against the Chinese Hamster Ovary (CHO) mammalian cell line using emetine as a reference drug. Aqueous solubility was determined at pH 6.5 (Table 2).
In-vitro anti-plasmodium assay. Compounds were tested using parasite lactate dehydrogenase assay as a marker for parasite survival. The respective stock solutions of CQ diphosphate and test compounds were prepared by dissolving 2 mg/mL in distilled water (for CQ) and 100% DMSO for test compounds. The solutions were then stored at −20 °C, with further dilutions prepared on the day of the experiment. The cultures were synchronized in the ring stage as described previously using 15 mL of 5% (w/v) d-sorbitol in water. Synchronous cultures of PfNF54 (CQS) in the late trophozoite stage were prepared to 2% parasitemia and 2% hematocrit. […] Following incubation, 100 μL of MalStat reagent and 15 μL of resuspended culture were combined, followed by addition of 25 μL of nitro blue tetrazolium chloride (NBT). The plates were kept in the dark for about 10 min to fully develop, and absorbance was measured at 620 nm on a microplate reader. Raw data were exported to Microsoft Excel for dose-response analysis.

[2] = system: P. falciparum K1 (multi-drug resistant strain); assay: In vitro antiplasmodial activity against multi-drug resistant K1 strain; format: cell-based; details: Plasmodium falciparum; multi-drug resistant K1 strain of P. falciparum; read-out: PfK1 IC50
[3] = system: Chinese Hamster Ovary (CHO) mammalian cell line; assay: Cytotoxicity MTT assay on CHO cells; format: cell-based; details: for IC50: Cricetulus griseus, CHO, Chinese hamster ovarian cell line, MTT, 48 h; for SI (selectivity index): SI = IC50 (CHO)/IC50 (PfNF54)
Method: All the synthesized molecular hybrids (6–27) were evaluated for in vitro antiplasmodial activity against the drug-sensitive strain (NF54) of P. falciparum and for cytotoxicity against the Chinese Hamster Ovary (CHO) mammalian cell line using emetine as a reference drug. Aqueous solubility was determined at pH 6.5 (Table 2). Cytotoxicity assay. […] The reference standard, emetine, was prepared to 2 mg/mL in distilled water while stock solutions of test compounds were prepared to 20 mg/mL in 100% DMSO with the highest concentration of solvent to which the cells were exposed having no measurable effect on the cell viability. The initial concentration of the compounds and control was 100 μg/mL, which was serially diluted in complete medium with 10-fold dilutions to give six concentrations, the lowest being 0.001 μg/mL. Plates were incubated for 48 h with 100 μL of drug and 100 μL of cell suspension in each well and developed afterward by adding 25 μL of sterile MTT (Thermo Fisher Scientific) to each well, followed by 4 h of incubation in the dark. The plates were then centrifuged; the medium was aspirated, and 100 μL of DMSO was added to dissolve crystals before reading the absorbance at 540 nm. Data were analyzed, and the sigmoidal dose-response was derived using GraphPad Prism v 4.0 software (La Jolla). All experiments were performed for at least three independent biological repeats, each with technical triplicates.

[4] = Aqueous solubility, miniaturized shake flask method (HPLC-DAD); format: physicochemical; details: aqueous solution, aqueous buffer, thermodynamic from solid, pH 6.5, shake flask 20 h, 25 °C
Method: All the synthesized molecular hybrids (6-27) were evaluated for in vitro antiplasmodial activity against the drug-sensitive strain (NF54) of P. falciparum and for cytotoxicity against the Chinese Hamster Ovary (CHO) mammalian cell line using emetine as a reference drug. Aqueous solubility was determined at pH 6.5 (Table 2). Aqueous solubility. Water solubility was analyzed using a miniaturized shake flask method. Ten millimolar stock solutions of each of the compounds were used to prepare calibration standards (10-220 μM) in DMSO. The same 10 mM stock solutions were accurately dispensed in duplicate into 96-well plates, and the DMSO, dried down ([…],90 min, 37 °C). Thereafter, the samples were reconstituted (200 μM) in an aqueous solution and shaken (20 h, 25 °C). The solutions were analyzed by means of HPLC-DAD (Agilent1200 Rapid Resolution HPLC with a diode array detector). Best fit calibration curves were constructed using the calibration standards, which were used to determine the aqueous samples' solubility.

| Compound | IC50 [1] | IC50 [2] | IC50 [3] | SI (selectivity index) [3] | melting point | solubility at 20 h [4] |
| --- | --- | --- | --- | --- | --- | --- |
| O=C(/C=C/c1ccccc1Br)c1ccc(S(=O)(=O)NCCCNc2ccnc3cc(Cl)ccc23)cc1 [Compound 8, (E)-4-(3-(2-bromophenyl)acryloyl)-N-(3-((7-chloroquinolin-4-yl)amino)propyl)benzenesulfonamide] | 100 nM | 2970 nM | 43200 nM | 435 |  |  |
| O=C(/C=C/c1ccc(Cl)cc1)c1ccc(S(=O)(=O)NCCCNc2ccnc3cc(Cl)ccc23)cc1 [Compound 11, (E)-4-(3-(4-chlorophenyl)acryloyl)-N-(3-((7-chloroquinolin-4-yl)amino)propyl)benzenesulfonamide] | 100 nM | 6000 nM | 41200 nM | 416.2 |  |  |
| COc1ccc(/C=C/C(=O)c2ccc(S(=O)(=O)NCCCNc3ccnc4cc(Cl)ccc34)cc2)cc1 [Compound 12, (E)-N-(3-((7-chloroquinolin-4-yl)amino)propyl)-4-(3-(4-methoxyphenyl)acryloyl)benzenesulfonamide] | 110 nM | 590 nM | 43300 nM | 393.6 | 221 to 223 °C |  |
| O=C(/C=C/c1ccc(F)cc1)c1ccc(S(=O)(=O)NCCNc2ccnc3cc(Cl)ccc23)cc1 [Compound 24, (E)-N-(2-((7-chloroquinolin-4-yl)amino)ethyl)-4-(3-(4-fluorophenyl)acryloyl)benzenesulfonamide] | 570 nM |  | 14500 nM | 25.5 | 222 to 224 °C | < 5 µM |
| O=C(/C=C/c1ccccc1Cl)c1ccc(S(=O)(=O)NCCNc2ccnc3cc(Cl)ccc23)cc1 [Compound 25, (E)-4-(3-(2-chlorophenyl)acryloyl)-N-(2-((7-chloroquinolin-4-yl)amino)ethyl)benzenesulfonamide] | 370 nM |  | 35400 nM | 95.7 | 209 to 211 °C | 19 µM (≈ 10 µg/mL) |
| O=C(/C=C/c1ccc2c(c1)OCO2)c1ccc(S(=O)(=O)NCCCNc2ccnc3cc(Cl)ccc23)cc1 [Compound 26, (E)-4-(3-(benzo[d][1,3]dioxol-5-yl)acryloyl)-N-(3-((7-chloroquinolin-4-yl)amino)propyl)benzenesulfonamide] | 690 nM |  | 34100 nM | 49.5 | 222 to 224 °C | 200 µM (≈ 110 µg/mL) |
